Series [1] has as its target T1, His-CRBN/DDB1 (Homo sapiens, UniProt Q96SW2).
T1 construct: made in house; host or cells: Sf9 insect cells (baculovirus)
Description: TR-FRET CRBN competitive binding assay (BODIPY FL thalidomide probe). Particulars: for CRBN binding (in words): FIG. 9D; for EC50: TR-FRET competitive binding, derived from FIG. 9D, read-out: CRBN Binding EC50 ± SD. As to the method: The pFastBacDual-6xHis-CRBN/DDB1 plasmid was cloned by GenScript and used for baculoviral expression of His-CRBN and untagged DDB1. Protein was expressed and purified essentially as described previously. The bacmid was produced in MAX Efficiency DH10Bac Competent Cells (Thermo Fisher Scientific) according to the manufacturer's instructions. To generate the P1 virus, 1×10^6 Sf9 cells were plated in each well of a six-well plate in 2 mL Sf-900 III SFM and transfected with 7 μg bacmid using Cellfectin II reagent (Thermo Fisher Scientific). After 6 h at 27° C., the media was replaced with 2 mL fresh Sf-900 III SFM. After three days, the supernatant was collected, centrifuged at 500×g for 5 min to remove cells and debris, transferred to new tubes, and stored at 4° C. To generate P2 virus, 2 mL P1 virus was added to 1×10^8 Sf9 cells in 50 mL Sf-900 III SFM and shaken at 27° C. for three days. The supernatant was collected and clarified as above. For protein expression, 5 mL P2 virus was added to each liter of Sf cells (2×10^6 cells/mL) and shaken at 27° C. for three days. Cells containing expressed protein were pelleted by centrifugation at 500×g for 5 min, the supernatant was removed, and pellets were stored at −80° C. until processing. […] The suspension was incubated on ice for 1 h, gently sonicated, and centrifuged for 1 h at 40,000×g at 4° C. The supernatant was applied to Ni-NTA Superflow resin (QIAGEN) equilibrated with lysis buffer. The resin was washed with 10 column volumes (CV) of lysis buffer, and proteins were eluted with 10 CV lysis buffer containing 500 mM imidazole. The solution was diluted to 200 mM NaCl using lysis buffer without NaCl and applied to a HiTrap ANX FF (High Sub) column (Cytiva) equilibrated with ANX binding buffer [50 mM Tris (pH 7.5), 200 mM NaCl, 3 mM TCEP]. The column was washed with 10 CV ANX binding buffer followed by 10 CV ANX wash buffer [50 mM Bis-Tris (pH 6.0), 200 mM NaCl, 3 mM TCEP]. A 20 CV linear gradient was then immediately applied from ANX binding buffer to ANX binding buffer containing 1 M NaCl using an AKTA avant chromatography system (Cytiva). The purest fractions were applied to a HiLoad 26/600 Superdex 200 pg size exclusion column equilibrated with 10 mM HEPES (pH 7.0), 240 mM NaCl, and 3 mM TCEP. Pure protein was concentrated to 20-30 mg/mL in Pierce PES Protein Concentrators (Thermo Fisher Scientific), flash frozen in liquid nitrogen, and stored at −80° C.
The assay buffer composition was 50 mM Tris (pH 7.5), 0.1% Triton X-100, 0.01% bovine serum albumin, and 1 mM DTT. […] Lastly, 5 μL/well of 8 nM Tb-anti-His and 8 nM His-CRBN/DDB1 in assay buffer was added. […] The plates were then protected from light exposure and incubated for 60 minutes at room temperature (RT). After incubation, the TR-FRET signal from each well was collected with a PHERAstar FS Microplate Reader (BMG Labtech). The percent inhibition for each well was calculated using equation 2: […]
(In TR-FRET formats the signal depends on donor and acceptor labels being close together.)

The target of series [2] is T2, GSPT1 (Homo sapiens, UniProt P15170+Q96SW2).
T2 construct: endogenous in cells
Description: Western blot of GSPT1 protein in SNU—C4 3xFLAG-PXR KI cells. Particulars: for GSPT1 Loss at 10 μM (% ± SD): 10 μM compound, calculated from western blots FIG. 9A; for GSPT1 degradation (in words): western blot, SNU—C4 3xFLAG-PXR KI cells. In kind it is cell-based. On the procedure: The following day, DMSO or compounds were added to result in 0.5% DMSO and the indicated compound concentrations, and cells were incubated for the indicated time points. Cells were lysed and subjected to western blotting as above using antibodies against FLAG (Sigma-Aldrich, cat. #F3165, 1:2,000 dilution), GSPT1 (Abcam, cat. #ab126090, 1:4,000 dilution), and R-Actin (Cell Signaling Technology, cat. #4967, 1:2,000 dilution).

Series [3] addresses T3, PXR (Homo sapiens, UniProt O75469).
T3 sequence (O75469 1-434): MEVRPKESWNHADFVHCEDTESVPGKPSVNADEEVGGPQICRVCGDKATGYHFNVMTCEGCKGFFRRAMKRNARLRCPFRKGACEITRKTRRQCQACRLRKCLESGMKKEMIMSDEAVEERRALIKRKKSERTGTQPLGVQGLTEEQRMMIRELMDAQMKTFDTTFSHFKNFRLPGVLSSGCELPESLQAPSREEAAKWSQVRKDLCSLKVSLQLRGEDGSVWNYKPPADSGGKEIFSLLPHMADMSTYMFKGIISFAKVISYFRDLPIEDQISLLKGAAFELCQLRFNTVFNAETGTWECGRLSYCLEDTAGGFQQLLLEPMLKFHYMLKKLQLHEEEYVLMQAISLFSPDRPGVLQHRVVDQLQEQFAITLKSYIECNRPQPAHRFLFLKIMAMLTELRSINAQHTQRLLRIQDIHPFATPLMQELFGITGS
Description: cell-based hPXR inverse agonistic assay. Conditions: for inhibition at 10 µM: read-out: Inverse agonist (% inhibition at 10 μM); for IC50: read-out: Inverse agonist (IC50/μM).

In series [4] the target is T3, PXR. Briefly: cell-based hPXR antagonistic assay. Particulars: for inhibition at 10 µM: read-out: Antagonist (% inhibition at 10 μM); for IC50: read-out: Antagonist (IC50/μM).

The values that follow come from patent US20260116867A1, “PROTEOLYSIS TARGETING CHIMERAS FOR HUMAN PREGNANE X RECEPTOR AND FOR DEGRADATION OF GSPT1” (ST. JUDE CHILDREN'S RESEARCH HOSPITAL, priority 2022, published 2026).

Where only a bound is given, the exact number is not on record here.

For `COc1ccc(OC)c(-n2nnc(C(=O)Nc3cc(NC(=O)CNc4cccc5c4C(=O)N(C4CCC(=O)NC4=O)C5=O)cc(C(C)(C)C)c3)c2C)c1` (centres unmarked) [Compound M8, N-(3-(tert-butyl)-5-(2-((2-(2,6-dioxopiperidin-3-yl)-1,3-dioxoisoindolin-4-yl)amino)acetamido)phenyl)-1-(2,5-dimethoxyphenyl)-5-methyl-1H-1,2,3-triazole-4-carboxamide], the “CRBN binding (in words)” value in series [1] is “retained strong binding of CRBN”. Also, in series [2], the “GSPT1 Loss at 10 μM (% ± SD)” value is on record as 89 ± 3.1% and the “GSPT1 degradation (in words)” value was “strong GSPT1 degradation”. Besides, in series [3], the inhibition at 10 µM was determined as 19% and the IC50 was found to be 13.2 ± 1.28 µM.

Regarding `COc1ccc(OC)c(-n2nnc(S(=O)(=O)c3ccc(C(C)(C)C)cc3)c2C)c1` [SPA70, reference compound], in series [1], the EC50 is greater than 3000 nM.

Turning to `COc1ccc(OC)c(-n2nnc(C(=O)Nc3cc(OC(=O)CNc4cccc5c4C(=O)N(C4CCC(=O)NC4=O)C5=O)cc(C(C)(C)C)c3)c2C)c1` (centres unmarked) [Compound M7, 3-(tert-butyl)-5-(1-(2,5-dimethoxyphenyl)-5-methyl-1H-1,2,3-triazole-4-carboxamido)phenyl (2-(2,6-dioxopiperidin-3-yl)-1,3-dioxoisoindolin-4-yl)glycinate], the “CRBN binding (in words)” value in series [1] is “retained strong binding of CRBN”. In addition, in series [2], the “GSPT1 Loss at 10 μM (% ± SD)” value is reported as 46 ± 1.5% and the “GSPT1 degradation (in words)” value is reported as “only weakly degraded GSPT1”. Also, in series [3], the inhibition at 10 µM was 103% and the IC50 stood at 0.2 ± 0.038 µM. Besides, in series [4], the inhibition at 10 µM was determined as 71% and the IC50 worked out at 1.38 ± 0.47 µM.

Take `COc1ccc(OC)c(-n2nnc(C(=O)Nc3cc(OCCNc4cccc5c4C(=O)N(C4CCC(=O)NC4=O)C5=O)cc(C(C)(C)C)c3)c2C)c1` (centres unmarked) [Compound M10, N-(3-(tert-butyl)-5-(2-((2-(2,6-dioxopiperidin-3-yl)-1,3-dioxoisoindolin-4-yl)amino)ethoxy)phenyl)-1-(2,5-dimethoxyphenyl)-5-methyl-1H-1,2,3-triazole-4-carboxamide]: in series [1], the “CRBN binding (in words)” value is recorded as “retained strong binding of CRBN”. In addition, in series [2], the “GSPT1 Loss at 10 μM (% ± SD)” value was 72 ± 2.3% and the “GSPT1 degradation (in words)” value was “strong GSPT1 degradation”. Besides, in series [3], the inhibition at 10 µM is 128% and the IC50 is 0.042 ± 0.0085 µM. Also, in series [4], the inhibition at 10 µM amounted to 102% and the IC50 came out at 0.23 ± 0.023 µM.

For `CC(C)(C)c1cc(N)cc(Oc2cccc3c2C(=O)N(C2CCC(=O)NC2=O)C3=O)c1` (centres unmarked) [Compound A1, 4-(3-amino-5-(tert-butyl)phenoxy)-2-(2,6-dioxopiperidin-3-yl)isoindoline-1,3-dione], in series [1], the “CRBN binding (in words)” value is listed as “maintained strong CRBN binding”. In series [2], the “GSPT1 Loss at 10 μM (% ± SD)” value is recorded as 23 ± 2.8% and the “GSPT1 degradation (in words)” value is reported as “lost the degradation activity of GSPT1”.

For `COc1ccc(OC)c(-n2nnc(C(=O)Nc3cc(OCC(=O)Nc4cccc5c4C(=O)N(C4CCC(=O)NC4=O)C5=O)cc(C(C)(C)C)c3)c2C)c1` (centres unmarked) [Compound M9, N-(3-(tert-butyl)-5-(2-((2-(2,6-dioxopiperidin-3-yl)-1,3-dioxoisoindolin-4-yl)amino)-2-oxoethoxy)phenyl)-1-(2,5-dimethoxyphenyl)-5-methyl-1H-1,2,3-triazole-4-carboxamide], in series [1], the “CRBN binding (in words)” value is reported as “greatly reduced CRBN binding” and the EC50 was greater than 333 nM. The “GSPT1 Loss at 10 μM (% ± SD)” value in series [2] is 20 ± 4.8%.

The inhibition is the drop in the measured response relative to a control, in per cent. What is called EC50 is the concentration needed to bring the measured effect to its halfway point.
